Test results reported in patent US11040035B2, “3-oxo-2,6-diphenyl-2,3-dihydropyridazine-4-carboxamides” (BAYER PHARMA AKTIENGESELLSCHAFT, priority 2016, dated 2021).
pIC50: −log10 of the molar value.

Assays:
AHR [1] = biological target: T1, AHR (Homo sapiens, UniProt P35869); experiment: In vitro assay 1: antagonism in human cell line (transactivation assay, kynurenic acid prestimulated); conditions: Assay 1: AHR-luc Hum Antagonism IC50 [M], 150 μM kynurenic acid, 20 hours, firefly luciferase
T1 sequence (P35869 11-848): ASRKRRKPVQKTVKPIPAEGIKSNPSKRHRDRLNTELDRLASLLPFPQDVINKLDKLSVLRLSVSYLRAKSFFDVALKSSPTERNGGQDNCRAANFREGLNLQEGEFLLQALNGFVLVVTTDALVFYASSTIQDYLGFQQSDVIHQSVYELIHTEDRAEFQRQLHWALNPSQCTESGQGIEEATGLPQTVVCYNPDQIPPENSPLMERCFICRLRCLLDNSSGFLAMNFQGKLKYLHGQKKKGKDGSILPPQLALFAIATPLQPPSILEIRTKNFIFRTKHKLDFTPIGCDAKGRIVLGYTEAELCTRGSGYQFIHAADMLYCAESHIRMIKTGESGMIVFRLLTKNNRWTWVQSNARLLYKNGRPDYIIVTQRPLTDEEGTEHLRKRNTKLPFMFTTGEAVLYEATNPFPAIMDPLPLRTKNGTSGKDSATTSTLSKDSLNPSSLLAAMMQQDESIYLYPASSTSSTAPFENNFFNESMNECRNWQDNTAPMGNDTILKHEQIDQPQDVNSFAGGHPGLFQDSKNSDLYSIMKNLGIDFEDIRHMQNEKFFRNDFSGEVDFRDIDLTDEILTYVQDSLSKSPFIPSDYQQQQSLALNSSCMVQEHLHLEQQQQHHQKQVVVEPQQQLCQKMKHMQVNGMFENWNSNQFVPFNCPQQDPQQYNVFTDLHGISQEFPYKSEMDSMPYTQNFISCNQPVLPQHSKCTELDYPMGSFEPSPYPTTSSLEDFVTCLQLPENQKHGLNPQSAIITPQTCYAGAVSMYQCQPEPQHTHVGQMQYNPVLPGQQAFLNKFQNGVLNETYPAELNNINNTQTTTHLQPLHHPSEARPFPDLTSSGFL
Description: Transactivation assays were carried out in U87 glioblastoma cells (ATCC) endogenously expressing AHR. In addition the cells were stably transfected with an AHR inducible firefly luciferase reporter gene construct that carried AHR-binding sites (DRE) in its promoter and a renilla reporter gene construct with constitutively active promoter. Kynurenic acid is an endogenous AHR activating ligand and was used to prestimulate test cells prior to testing the antagonistic properties of compounds.
In Vitro Assay 1: Antagonism in Human Cell Line
Cells in medium (tryptophan free RPMI, 1% FCS, 2 mM Glutamine) supplemented with 150 μM kynurenic acid were grown for 20 hours in absence (negative control) or presence of increasing concentrations of test compounds (typical dilutions: 72 pmol/L, 0.25 nmol/L, 0.89 nmol/L; 3.1 nmol/L, 11 nmol/L, 38 nmol/L, 130 nmol/L, 470 nmol/L, 1.6 μmol/L, 5.7 μmol/L and 20 μmol/L in duplicates). As positive inhibition control cells supplemented with 150 μM kynurenic acid were incubated in presence of 5 μM Staurosporin. Normalization was done by positive and negative controls.
Firefly luciferase and Renilla activity was determined by the DualGlo Luciferase Assay System (Promega, #2920).

AHR [2] = biological target: T1, AHR; experiment: In vitro assay 2: agonism in human cell line (transactivation assay); conditions: for pIC50: read-out: Assay 2: AHR-luc Hum Agonism IC50, no kynurenic acid, 20 hours, firefly luciferase; for IC50: Assay 2: AHR-luc Hum Agonism IC50 [M], no kynurenic acid, 20 hours, firefly luciferase

SMILES | IC50 (AHR [1]) | pIC50 (AHR [2]) | IC50 (AHR [2])
O=C(NC(CO)C1CCOC1)c1cc(-c2ccc(Cl)cc2)nn(-c2cccc(F)c2)c1=O (single isomer, unassigned) [Example 42, 6-(4-Chlorophenyl)-2-(3-fluorophenyl)-N-[2-hydroxy-1-(tetrahydrofuran-3-yl)ethyl]-3-oxo-2,3-dihydropyridazine-4-carboxamide] | 3.44e-07 M | < 4.70 | –
O=C(NCC(O)C(F)(F)F)c1cc(-c2ccc(Cl)cc2)nn(-c2cc(F)cc(F)c2)c1=O (single isomer, unassigned) [Example 46, 6-(4-Chlorophenyl)-2-(3,5-difluorophenyl)-3-oxo-N-(3,3,3-trifluoro-2-hydroxypropyl)-2,3-dihydropyridazine-4-carboxamide] | 5.64e-08 M | < 4.70 | –
Cc1ccc(-c2cc(C(=O)NCC(O)C(F)(F)F)c(=O)n(-c3cc(F)cc(F)c3)n2)cc1 (single isomer, unassigned) [Example 53, 2-(3,5-Difluorophenyl)-6-(4-methylphenyl)-3-oxo-N-(3,3,3-trifluoro-2-hydroxypropyl)-2,3-dihydropyridazine-4-carboxamide] | 8.85e-09 M | – | > 2e-05 M
O=C(NCC(O)C(F)(F)F)c1cc(-c2ccc(Cl)cc2)nn(-c2cccc(Cl)c2)c1=O (single isomer, unassigned) [Example 63, 2-(3-Chlorophenyl)-6-(4-chlorophenyl)-3-oxo-N-(3,3,3-trifluoro-2-hydroxypropyl)-2,3-dihydropyridazine-4-carboxamide] | 8.99e-08 M | – | > 2e-05 M
O=C(NCC(O)C(F)(F)F)c1cc(-c2ccc(Cl)cc2)nn(-c2cccc(Cl)c2)c1=O (single isomer, unassigned) [Example 64, 2-(3-Chlorophenyl)-6-(4-chlorophenyl)-3-oxo-N-(3,3,3-trifluoro-2-hydroxypropyl)-2,3-dihydropyridazine-4-carboxamide] | 3.66e-07 M | < 4.70 | –
CC(C)C(O)CNC(=O)c1cc(-c2ccc(Cl)cc2)nn(-c2cccc(Cl)c2)c1=O (single isomer, unassigned) [Example 68, 2-(3-Chlorophenyl)-6-(4-chlorophenyl)-N-(2-hydroxy-3-methylbutyl)-3-oxo-2,3-dihydropyridazine-4-carboxamide] | 3.7e-07 M | – | > 2e-05 M
CC(C)C(O)CNC(=O)c1cc(-c2ccc(Cl)cc2)nn(-c2cccc(Cl)c2)c1=O (single isomer, unassigned) [Example 69, 2-(3-Chlorophenyl)-6-(4-chlorophenyl)-N-(2-hydroxy-3-methylbutyl)-3-oxo-2,3-dihydropyridazine-4-carboxamide] | 4.41e-07 M | < 4.70 | –
O=C(NCC(O)C(F)(F)F)c1cc(-c2ccc(Cl)cc2)nn(-c2ccccc2)c1=O (single isomer, unassigned) [Example 77, 6-(4-chlorophenyl)-3-oxo-2-phenyl-N-(3,3,3-trifluoro-2-hydroxypropyl)-2,3-dihydropyridazine-4-carboxamide] | 7.28e-08 M | – | > 2e-05 M
O=C(NCC(O)C(F)(F)F)c1cc(-c2ccc(Cl)cc2)nn(-c2ccccc2)c1=O (single isomer, unassigned) [Example 78, 6-(4-chlorophenyl)-3-oxo-2-phenyl-N-(3,3,3-trifluoro-2-hydroxypropyl)-2,3-dihydropyridazine-4-carboxamide] | 2.66e-07 M | < 4.70 | –
O=C(N[C@@H]1CCCC[C@@H]1O)c1cc(-c2ccc(Cl)cc2)nn(-c2cccc(F)c2)c1=O (single isomer, unassigned) [Example 105, 6-(4-Chlorophenyl)-2-(3-fluorophenyl)-N-(cis-2-hydroxycyclohexyl)-3-oxo-2,3-dihydropyridazine-4-carboxamide] | 1.51e-07 M | < 4.70 | –
COc1ccc(-c2cc(C(=O)N[C@@H]3CCCC[C@@H]3O)c(=O)n(-c3cccc(F)c3)n2)cc1 (single isomer, unassigned) [Example 108, 2-(3-Fluorophenyl)-N-(cis-2-hydroxycyclohexyl)-6-(4-methoxyphenyl)-3-oxo-2,3-dihydropyridazine-4-carboxamide] | 2.4e-07 M | < 4.70 | –
O=C(N[C@H]1CCCC[C@@H]1O)c1cc(-c2ccc(Cl)cc2)nn(-c2cccc(F)c2)c1=O (single isomer, unassigned) [Example 119, 6-(4-Chlorophenyl)-2-(3-fluorophenyl)-N-(trans-2-hydroxycyclohexyl)-3-oxo-2,3-dihydropyridazine-4-carboxamide] | 4.51e-07 M | < 4.70 | –
O=C(NCC(O)C(F)(F)F)c1cc(-c2ccc(OC(F)F)cc2)nn(-c2cccc(F)c2)c1=O (single isomer, unassigned) [Example 121, 6-[4-(Difluoromethoxy)phenyl]-2-(3-fluorophenyl)-3-oxo-N-(3,3,3-trifluoro-2-hydroxypropyl)-2,3-dihydropyridazine-4-carboxamide] | 3.42e-08 M | – | > 2e-05 M
O=C(NCC(O)C(F)(F)F)c1cc(-c2ccc(OC(F)F)cc2)nn(-c2cccc(F)c2)c1=O (single isomer, unassigned) [Example 122, 6-[4-(Difluoromethoxy)phenyl]-2-(3-fluorophenyl)-3-oxo-N-(3,3,3-trifluoro-2-hydroxypropyl)-2,3-dihydropyridazine-4-carboxamide] | 1.38e-07 M | < 4.70 | –
O=C(N[C@H]1CCC[C@@H]1O)c1cc(-c2ccc(Cl)cc2)nn(-c2cccc(F)c2)c1=O (single isomer, unassigned) [Example 125, 6-(4-Chlorophenyl)-2-(3-fluorophenyl)-N-(trans-2-hydroxycyclopentyl)-3-oxo-2,3-dihydropyridazine-4-carboxamide] | 1.86e-07 M | < 4.70 | –
O=C(N[C@H]1COC[C@@H]1O)c1cc(-c2ccc(Cl)cc2)nn(-c2cccc(F)c2)c1=O (single isomer, unassigned) [Example 136, 6-(4-Chlorophenyl)-2-(3-fluorophenyl)-N-(trans-4-hydroxytetrahydrofuran-3-yl)-3-oxo-2,3-dihydropyridazine-4-carboxamide] | 1.43e-07 M | < 4.70 | –
CC(O)C(C)NC(=O)c1cc(-c2ccc(OC(F)F)cc2)nn(-c2cccc(F)c2)c1=O (single isomer, unassigned) [Example 141, 6-[4-(Difluoromethoxy)phenyl]-2-(3-fluorophenyl)-N-(3-hydroxybutan-2-yl)-3-oxo-2,3-dihydropyridazine-4-carboxamide] | 7.81e-08 M | – | > 2e-05 M
CC(O)C(C)NC(=O)c1cc(-c2ccc(OC(F)F)cc2)nn(-c2cccc(F)c2)c1=O (single isomer, unassigned) [Example 142, 6-[4-(Difluoromethoxy)phenyl]-2-(3-fluorophenyl)-N-(3-hydroxybutan-2-yl)-3-oxo-2,3-dihydropyridazine-4-carboxamide] | 9.15e-07 M | < 4.70 | –
O=C(NC(CO)C1CCOC1)c1cc(-c2ccc(OC(F)F)cc2)nn(-c2cccc(F)c2)c1=O (single isomer, unassigned) [Example 146, 6-[4-(Difluoromethoxy)phenyl]-2-(3-fluorophenyl)-N-{(2-hydroxy-1-tetrahydrofuran-3-yl)ethyl}-3-oxo-2,3-dihydropyridazine-4-carboxamide] | 2.94e-07 M | < 4.70 | –
O=C(NC(CO)C1CCOC1)c1cc(-c2ccc(OC(F)F)cc2)nn(-c2cccc(F)c2)c1=O (single isomer, unassigned) [Example 147, 6-[4-(Difluoromethoxy)phenyl]-2-(3-fluorophenyl)-N-{(2-hydroxy-1-tetrahydrofuran-3-yl)ethyl}-3-oxo-2,3-dihydropyridazine-4-carboxamide] | 4.66e-07 M | < 4.70 | –
O=C(NC(CO)C1CCOC1)c1cc(-c2ccc(OC(F)F)cc2)nn(-c2cccc(F)c2)c1=O (single isomer, unassigned) [Example 148, 6-[4-(Difluoromethoxy)phenyl]-2-(3-fluorophenyl)-N-{(2-hydroxy-1-tetrahydrofuran-3-yl)ethyl}-3-oxo-2,3-dihydropyridazine-4-carboxamide] | 5.33e-07 M | < 4.70 | –
O=C(NC(CO)C1CCOCC1)c1cc(-c2ccc(Cl)cc2)nn(-c2cccc(F)c2)c1=O (single isomer, unassigned) [Example 150, 6-(4-Chlorophenyl)-2-(3-fluorophenyl)-N-[2-hydroxy-1-(tetrahydro-2H-pyran-4-yl)ethyl]-3-oxo-2,3-dihydropyridazine-4-carboxamide] | 2.35e-07 M | – | > 2e-05 M
